Converted amounts (≈) assume the structure as drawn.
What was measured:
[1] = system: Mannheimia haemolytica; experiment: minimum inhibitory concentration (MIC)
Procedure: (§1)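 Broth microdilution MIC (Sensititre BOPO7F bovine plate, CLSI methods) of 19 antimicrobials against field isolates of P. multocida, M. haemolytica, H. somni (deep nasopharyngeal swabs) and E. coli, Enterococcus spp. (rectal swabs) from weaned dairy heifers. Incubation 16-24 h at 35 C. MIC is the lowest concentration preventing visible growth. Values with <= or > lie at the tested range limits. Trimethoprim-sulfamethoxazole is given as the trimethoprim component of a 1:19 mixture.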

[2] = system: Enterococcus spp.; experiment: minimum inhibitory concentration (MIC)
Procedure: as §1

CN1C[C@@H]2C[C@H]1CN2c1cc2c(cc1F)c(=O)c(C(=O)O)cn2C1CC1 [Danofloxacin]
minimum inhibitory concentration [µg/mL]
Details	[1]	[2]
isolate (source animal id): 2	–	0.25 (≈ 0.7 µM)
isolate (source animal id): 8	0.5 (≈ 1.4 µM)	–
isolate (source animal id): 13	0.5 (≈ 1.4 µM)	–
isolate (source animal id): 18	0.5 (≈ 1.4 µM)	–
isolate (source animal id): 21	0.5 (≈ 1.4 µM)	–
isolate (source animal id): 25	0.5 (≈ 1.4 µM)	–
isolate (source animal id): 27	0.25 (≈ 0.7 µM)	–
isolate (source animal id): 28	> 1	–
isolate (source animal id): 30	0.5 (≈ 1.4 µM)	–
isolate (source animal id): 31	> 1	–
isolate (source animal id): 32	0.25 (≈ 0.7 µM)	–
isolate (source animal id): 34	0.5 (≈ 1.4 µM)	–
isolate (source animal id): 35	–	> 1
isolate (source animal id): 36	0.5 (≈ 1.4 µM)	–
isolate (source animal id): 37	0.5 (≈ 1.4 µM)	–
isolate (source animal id): 40	0.5 (≈ 1.4 µM)	–
isolate (source animal id): 41	0.5 (≈ 1.4 µM)	–
isolate (source animal id): 42	–	1 (≈ 2.8 µM)
isolate (source animal id): 43	0.5 (≈ 1.4 µM)	–
isolate (source animal id): 44	–	1 (≈ 2.8 µM)
isolate (source animal id): 46	0.5 (≈ 1.4 µM)	–
isolate (source animal id): 49	0.5 (≈ 1.4 µM)	–
isolate (source animal id): 50	0.5 (≈ 1.4 µM)	–
isolate (source animal id): 51	0.5 (≈ 1.4 µM)	–
isolate (source animal id): 52	0.5 (≈ 1.4 µM)	–
isolate (source animal id): 53	0.5 (≈ 1.4 µM)	–
isolate (source animal id): 55	0.5 (≈ 1.4 µM)	–
isolate (source animal id): 56	0.5 (≈ 1.4 µM)	–
isolate (source animal id): 57	> 1	–
isolate (source animal id): 79	–	1 (≈ 2.8 µM)
isolate (source animal id): 88	–	0.25 (≈ 0.7 µM)
isolate (source animal id): 91	–	0.25 (≈ 0.7 µM)
isolate (source animal id): 92	–	1 (≈ 2.8 µM)
isolate (source animal id): 100	> 1	–
isolate (source animal id): 103	0.5 (≈ 1.4 µM)	–
isolate (source animal id): 107	0.5 (≈ 1.4 µM)	–
isolate (source animal id): 108	0.5 (≈ 1.4 µM)	–
isolate (source animal id): 111	–	0.25 (≈ 0.7 µM)
isolate (source animal id): 112	0.5 (≈ 1.4 µM)	–
isolate (source animal id): 113	> 1	–
isolate (source animal id): 121	0.5 (≈ 1.4 µM)	–
isolate (source animal id): 122	0.5 (≈ 1.4 µM)	1 (≈ 2.8 µM)
isolate (source animal id): 123	> 1	0.5 (≈ 1.4 µM)
isolate (source animal id): 126	> 1	–
isolate (source animal id): 133	> 1	1 (≈ 2.8 µM)
isolate (source animal id): 135	> 1	–
isolate (source animal id): 138	> 1	–
isolate (source animal id): 141	> 1	–
isolate (source animal id): 142	> 1	–
isolate (source animal id): 145	> 1	–
isolate (source animal id): 149	≤ 0.12	–
isolate (source animal id): 151	≤ 0.12	–
isolate (source animal id): 152	> 1	–
isolate (source animal id): 154	≤ 0.12	–
isolate (source animal id): 158	–	1 (≈ 2.8 µM)
isolate (source animal id): 159	> 1	–
isolate (source animal id): 162	> 1	–
isolate (source animal id): 168	–	0.5 (≈ 1.4 µM)
isolate (source animal id): 169	–	0.5 (≈ 1.4 µM)
isolate (source animal id): 170	≤ 0.12	–
isolate (source animal id): 171	≤ 0.12	0.5 (≈ 1.4 µM)
isolate (source animal id): 172	≤ 0.12	–
isolate (source animal id): 173	≤ 0.12	–
isolate (source animal id): 175	–	> 1
isolate (source animal id): 177	–	> 1
isolate (source animal id): 179	≤ 0.12	–
isolate (source animal id): 180	≤ 0.12	–
isolate (source animal id): 181	–	0.5 (≈ 1.4 µM)
isolate (source animal id): 182	–	1 (≈ 2.8 µM)
isolate (source animal id): 183	≤ 0.12	1 (≈ 2.8 µM)
isolate (source animal id): 186	≤ 0.12	–
isolate (source animal id): 187	≤ 0.12	0.5 (≈ 1.4 µM)
isolate (source animal id): 188	≤ 0.12	–
isolate (source animal id): 190	≤ 0.12	0.5 (≈ 1.4 µM)
isolate (source animal id): 191	≤ 0.12	–
isolate (source animal id): 192	≤ 0.12	–
isolate (source animal id): 194	–	0.5 (≈ 1.4 µM)
isolate (source animal id): 195	–	0.5 (≈ 1.4 µM)
isolate (source animal id): 197	–	0.5 (≈ 1.4 µM)
isolate (source animal id): 201	≤ 0.12	–
isolate (source animal id): 202	≤ 0.12	–
isolate (source animal id): 209	≤ 0.12	–
isolate (source animal id): 211	≤ 0.12	1 (≈ 2.8 µM)
isolate (source animal id): 214	–	> 1
isolate (source animal id): 220	≤ 0.12	–
isolate (source animal id): 221	≤ 0.12	–
isolate (source animal id): 222	–	0.5 (≈ 1.4 µM)
isolate (source animal id): 223	≤ 0.12	0.5 (≈ 1.4 µM)
isolate (source animal id): 228	–	0.5 (≈ 1.4 µM)
isolate (source animal id): 230	–	0.5 (≈ 1.4 µM)
isolate (source animal id): 233	> 1	–
isolate (source animal id): 235	–	0.5 (≈ 1.4 µM)
isolate (source animal id): 236	–	> 1
isolate (source animal id): 237	> 1	–
isolate (source animal id): 239	–	> 1
isolate (source animal id): 241	> 1	0.5 (≈ 1.4 µM)
isolate (source animal id): 244	–	0.5 (≈ 1.4 µM)
isolate (source animal id): 246	–	0.5 (≈ 1.4 µM)
isolate (source animal id): 247	–	0.5 (≈ 1.4 µM)
isolate (source animal id): 250	–	0.25 (≈ 0.7 µM)
isolate (source animal id): 252	0.25 (≈ 0.7 µM)	> 1
isolate (source animal id): 253	0.5 (≈ 1.4 µM)	–
isolate (source animal id): 259	> 1	–
isolate (source animal id): 260	0.5 (≈ 1.4 µM)	–
isolate (source animal id): 262	> 1	–
isolate (source animal id): 268	–	0.25 (≈ 0.7 µM)
isolate (source animal id): 282	> 1	1 (≈ 2.8 µM)
isolate (source animal id): 285	–	1 (≈ 2.8 µM)
isolate (source animal id): 287	0.5 (≈ 1.4 µM)	–
isolate (source animal id): 288	≤ 0.12	–
isolate (source animal id): 289	–	0.5 (≈ 1.4 µM)
isolate (source animal id): 290	–	0.5 (≈ 1.4 µM)
isolate (source animal id): 291	≤ 0.12	–
isolate (source animal id): 293	0.5 (≈ 1.4 µM)	–
isolate (source animal id): 296	–	0.5 (≈ 1.4 µM)
isolate (source animal id): 298	0.5 (≈ 1.4 µM)	0.5 (≈ 1.4 µM)
isolate (source animal id): 299	0.5 (≈ 1.4 µM)	–
isolate (source animal id): 300	≤ 0.12	–
isolate (source animal id): 301	–	0.5 (≈ 1.4 µM)
isolate (source animal id): 302	0.5 (≈ 1.4 µM)	–
isolate (source animal id): 304	0.5 (≈ 1.4 µM)	–
isolate (source animal id): 306	≤ 0.12	–
isolate (source animal id): 308	≤ 0.12	–
isolate (source animal id): 309	≤ 0.12	–
isolate (source animal id): 310	–	> 1
isolate (source animal id): 313	0.5 (≈ 1.4 µM)	–
isolate (source animal id): 318	0.25 (≈ 0.7 µM)	–
isolate (source animal id): 320	≤ 0.12	0.5 (≈ 1.4 µM)
isolate (source animal id): 321	0.5 (≈ 1.4 µM)	–
isolate (source animal id): 323	0.5 (≈ 1.4 µM)	–
isolate (source animal id): 324	0.5 (≈ 1.4 µM)	–
isolate (source animal id): 326	0.5 (≈ 1.4 µM)	–
isolate (source animal id): 328	0.5 (≈ 1.4 µM)	–
isolate (source animal id): 329	0.5 (≈ 1.4 µM)	–
isolate (source animal id): 331	–	1 (≈ 2.8 µM)
isolate (source animal id): 333	0.5 (≈ 1.4 µM)	0.5 (≈ 1.4 µM)
isolate (source animal id): 335	0.5 (≈ 1.4 µM)	–
isolate (source animal id): 338	0.5 (≈ 1.4 µM)	–
isolate (source animal id): 341	–	> 1

From the supplement of paper PMC8612539
